According to US6890950B2, “Lapachone delivery systems, compositions and uses related thereto” (priority 2002, dated 2005):
Read-outs that look alike come from different tables or passages of the source.

How the values were obtained:
C57/blk6 mice = conditions: cited from earlier work
PC-3 cells = experiment: survival / lethality of CaP cells; assay type: cell-based, human; conditions: PC-3, absence of IR
athymic nude mice = experiment: maximum tolerated dose in athymic nude mice; assay type: in vivo, mouse
Procedure: MDA_MB-468 NQO1+ Tumor (468) cells were injected into the right and left flanks of 18-20 gm athymic nude mice and tumors of 20-50 mm^3 volume were allowed to grow in 20-30 days. When tumor volumes reached 20-30 mm^3 (at day 26), mice were then treated (by intraperitoneal injection) every other day with the indicated doses (in mg/kg) of β-lap (55-70 mg/kg were tested). The maximum tolerated dose of β-lap in athymic nude mice was determined to be […]). Ten (10) β-lap doses were given every other day, and data are shown for only one cycle of β-lap treatment. Multiple cycles of treatments are now being tested, as are various dose regimen and scheduling protocols.
β-lap bioavailability and antitumor activity. To show efficacy of β-lap in vivo, a systemic delivery system was developed for this water-insoluble drug. β-Lap complexes with β-hydroxypropyl-β-cyclodextrin (HP-β-CD) that dissolves the drug and makes it bioavailable. The toxicity of HP-β-CD.β-lap in 18-20 gm athymic nude mice was examined and the maximum tolerated dose (MTD) was ˜75 mg/kg. […] We tested the effects of β-lap administered i.p. in athymic nude mice bearing NQO1^+ MDA-MB-468 (468) human breast cancer xenografts.

L1C2 cells = assay type: cell-based; conditions: 4 μM, 4 h
Source text: (§1) PARP cleavage to a 60 kDa fragment and specific p53 proteolysis are diagnostic for β-lap-induced μ-calpain-mediated apoptosis.

[1] = tested on: Lewis lung carcinoma (LLC); assay type: cell-based; conditions: 4 μM, 4 h
Source text: as §1

NQO1− LNCaP cells = experiment: radiosensitization, clonogenic survival; assay type: cell-based, human
Procedure: (§2) FIG. 15. […] Changes in colony forming ability. In A, pcDNA3-vector alone cells were tested. In B, same as A, except that NQO1^+ LNCaP cells were used.
(§3) To answer the question of whether NQO1 levels must be induced for β-lap radiosensitization, we examined NQO1^+ LNCaP NQC12 v. NQO1^− LNCaP-pcDNA3 vector alone cells for differences in radiosensitization by various concentrations of β-lap, given 4 h post-IR (FIG. 15).

NQO1+ LNCaP NQCl2 cells = experiment: radiosensitization, clonogenic survival; assay type: cell-based, human; conditions: β-lap given 4 h post-IR
Procedure: as §2, §3

CC1(C)CCC2=C(O1)c1ccccc1C(=O)C2=O [β-lap, β-Lapachone]
LD50 (C57/blk6 mice; Cremophor as vehicle): > 150 mg/kg
LD50 (C57/blk6 mice; lipiodol, C57/blk6 mice): > 150 mg/kg
sensitivity to β-lap (PC-3 cells): sensitive
maximum tolerated dose (MTD) (athymic nude mice; 18-20 gm athymic nude mice): 80 mg/kg
greater bioavailability in vivo than in previous studies (athymic nude mice; HP-β-CD complex MTD vs lipiodol LD50): ~3 fold
sensitivity to β-lap (L1C2 cells): extremely sensitive
sensitivity to β-lap [1]: extremely sensitive
radiosensitization (NQO1− LNCaP cells): not sensitized
radiosensitization (NQO1+ LNCaP NQCl2 cells): radiosensitized
